Experimental findings from PubChem BioAssay (NCI) are described below.

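Grown in 96-well plates, cells were treated for 48 hours with each compound at five concentrations. Insufficient inhibition: endpoint recorded as highest concentration tested. GI50 is the concentration that inhibits growth by half. TGI denotes the concentration required for complete inhibition of growth.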

Common to all, as to test: NCI-60 cell line screen, 48 h
Assay [1] has as its system HT29 colon.
In assay [2] the test system is SNB-75 CNS.
The subject of assay [3] is SN12C renal.
Assay [4] has as its system SR leukemia.
Assay [5] has as its system SK-MEL-2 melanoma.
Assay [6] concerns A549 NSCLC.
Assay [7] relates to HCT-15 colon.
The subject of assay [8] is HOP-62 NSCLC.
The subject of assay [9] is MALME-3M melanoma.
Assay [10] relates to DU-145 prostate.

Take `CCCCCCCCCCC(C)CCCCCCC(=O)O` (centres undefined): the TGI in assay [1], in assay [2], in assay [3], in assay [4], in assay [5] and in assay [6] was over 100 µM each time. Moreover, the TGI in assay [7], in assay [8] and in assay [9] was over 100 µM throughout.

For `C=CC1=C(C)C2=NC1=CC1=NC(=C(CC)/C1=C\O)C=C1N=C3C(=C1C)C(=O)[C@H](C(=O)OC)C3=C1NC(=C2)[C@@H](C)[C@@H]1CCC(=O)O`, the TGI in [1], in assay [2], in [3], in assay [5], in [6] and in assay [10] was over 100 µM each time. Moreover, the TGI in [7] and in assay [9] was over 100 µM throughout.

Take `O=C(CC/C(CC(=O)c1ccc(Br)cc1)=N\O)Nc1ccc(Cl)c(Cl)c1`: the TGI in assay [1], in assay [2], in assay [3], in assay [4], in assay [5] and in assay [6] was over 100 µM throughout. Besides, the TGI in assay [7], in assay [8] and in assay [9] was over 100 µM throughout.

Turning to `CCC[CH2][Sn]1([CH2]CCC)[O]CC(C)[O]1` (centres undefined), the GI50 in assay [1] was 1.74 µM; in [2], 0.57 µM; in assay [3], 1.39 µM; in assay [4] it was 0.515 µM; in assay [5], 0.54 µM; in assay [6], 9.72 µM. In addition, the GI50 in [7] is 1.1 µM; in [8], 2.63 µM; in assay [9], 0.544 µM. Moreover, the TGI in assay [1] was found to be 3.44 µM; in assay [2] it was 2.3 µM; in assay [3] it was 2.78 µM; in assay [4], 2.27 µM; in assay [5] it was 1.83 µM; in assay [6], 21.8 µM. Moreover, the TGI was 2.35 µM in assay [7], 6.62 µM in [8] and 2.22 µM in assay [9].

Take `Brc1cc2c(cc1Br)CN(c1ccccc1)C2`: the TGI in assay [1], in assay [2], in assay [3], in [5], in assay [6] and in assay [7] was over 100 µM in each case. Moreover, the TGI in assay [8] and in assay [9] was over 100 µM each time.

On to `Cc1cccc2c(O)cc(=O)oc12`, for which the TGI in assay [1], in assay [2], in assay [3], in assay [4], in assay [6] and in [8] was over 100 µM in each case. In assay [9], this molecule displayed a TGI of over 100 µM.

With `O=C1/C(=C/c2ccc(Br)cc2)CCC/C1=C\c1ccc(Br)cc1`, the TGI in assay [1] was 4.27 µM; in [2], 69.3 µM; in assay [3], 53 µM; in [5], 63 µM; in assay [6], 35.3 µM; in assay [7], 31.1 µM. Moreover, the TGI in assay [8] stood at 53.3 µM; in assay [9] it was 51 µM.

`Cc1ccc(C(=O)CC2=Nc3nnc(CCCCCCCc4nnc5n4C(=O)C(CC(=O)c4ccc(C)cc4)=N5)n3C2=O)cc1`: the TGI in [1] was over 100 µM; in [2] it was 86.9 µM; in [3] it was over 100 µM; in assay [4] it was over 100 µM; in [6], over 100 µM; in [7], over 100 µM. In addition, the TGI in assay [8] and in [9] was over 100 µM each time.

Consider `COC(=O)c1nn(C(=N)c2ccc(Cl)cc2)c2c1CCC2`, for which the TGI in [1] is over 100 µM; in [2] it was over 100 µM; in assay [3], over 100 µM; in assay [4], 92.3 µM; in assay [5], over 100 µM; in assay [6], over 100 µM. In addition, the TGI in [7], in [8] and in assay [9] was over 100 µM in each case.

On to `CC(=O)[CH-]C(C)=O.CC(=O)[CH-]C(C)=O.CC[O-].CC[O-].[Ti+4]`, for which the GI50 in assay [1], in assay [2], in assay [3], in [5], in [6] and in [7] was over 100 µM each time. Moreover, the GI50 in [8] and in assay [9] was over 100 µM throughout. Moreover, the TGI in assay [1], in assay [2], in assay [3], in assay [5], in [6] and in assay [7] was over 100 µM in each case. The TGI in assay [8] and in assay [9] was over 100 µM in each case.

Regarding `COc1cc2c3c(n(C)c(=O)c2cc1OC)-c1cc2c(cc1/C3=C\CCNCCCN)OCO2`, the GI50 in [1] was 1.86 µM; in assay [2] it was 11.4 µM; in [3], 1.18 µM; in [5], 5.09 µM; in assay [6], 4.53 µM; in assay [7], 16.9 µM. For the same molecule, the GI50 in assay [8] is 3.85 µM; in [9] it was 0.863 µM. For the same molecule, the TGI was over 100 µM in [1]; over 100 µM in [2]; 8.41 µM in assay [3]; over 100 µM in [5]; over 100 µM in assay [6]; 39.6 µM in [7]. Further, the TGI in assay [8] worked out at 15.6 µM; in assay [9], 4.02 µM.

Take `NNC(=O)C(=O)N/N=C(\CCC(=O)Nc1ccc(Cl)cc1)Cc1nc2ccccc2s1`: the TGI was over 100 µM in assay [1]; over 100 µM in assay [2]; over 100 µM in [3]; 68.5 µM in assay [4]; over 100 µM in [5]; over 100 µM in [6]. The TGI in assay [7], in assay [8] and in assay [9] was over 100 µM each time.

As to `CN(C)C(=O)Oc1c(-c2ccccc2)c(=O)n2c3ccccc3n3c(=O)n(C)c(=O)c1c23`, the TGI in assay [1], in [2], in assay [3], in assay [4], in assay [5] and in assay [6] was over 100 µM throughout. For the same molecule, the TGI in assay [7], in assay [8] and in assay [9] was over 100 µM each time.
